Results from PubChem BioAssay (NCI).
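Briefly, cells in 96-well plates were exposed to five compound concentrations for 48 h, and endpoints were estimated by linear interpolation. TGI: total growth inhibition.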

What was measured:
Assay in all cases: NCI tumour cell line growth inhibition, 48 h
IGROV1 ovarian = system: IGROV1 ovarian
SK-OV-3 ovarian = system: SK-OV-3 ovarian
HCC-2998 colon = system: HCC-2998 colon
A549 NSCLC = system: A549 NSCLC
HOP-62 NSCLC = system: HOP-62 NSCLC
TK-10 renal = system: TK-10 renal
OVCAR-4 ovarian = system: OVCAR-4 ovarian
OVCAR-5 ovarian = system: OVCAR-5 ovarian
UACC-257 melanoma = system: UACC-257 melanoma
HS 578T breast = system: HS 578T breast
MDA-MB-231 breast = system: MDA-MB-231 breast
RXF 393 renal = system: RXF 393 renal
NCI-H522 lung = system: NCI-H522 lung
SW-620 colon = system: SW-620 colon
MCF7 breast = system: MCF7 breast
HCT-15 colon = system: HCT-15 colon
MALME-3M melanoma = system: MALME-3M melanoma
SNB-19 CNS = system: SNB-19 CNS
SK-MEL-2 melanoma = system: SK-MEL-2 melanoma
EKVX NSCLC = system: EKVX NSCLC
U251 CNS = system: U251 CNS
UO-31 renal = system: UO-31 renal
CAKI-1 renal = system: CAKI-1 renal
LOX IMVI melanoma = system: LOX IMVI melanoma
NCI-H226 lung = system: NCI-H226 lung
MOLT-4 leukemia = system: MOLT-4 leukemia
HOP-92 NSCLC = system: HOP-92 NSCLC
MDA-N = system: MDA-N
SF-268 CNS = system: SF-268 CNS
SF-539 CNS = system: SF-539 CNS
PC-3 prostate = system: PC-3 prostate
HCT-116 colon = system: HCT-116 colon
BT-549 breast = system: BT-549 breast
NCI-H23 lung = system: NCI-H23 lung
SK-MEL-5 melanoma = system: SK-MEL-5 melanoma
NCI/ADR-RES ovarian = system: NCI/ADR-RES ovarian
DU-145 prostate = system: DU-145 prostate
NCI-H460 lung = system: NCI-H460 lung
OVCAR-3 ovarian = system: OVCAR-3 ovarian
SNB-75 CNS = system: SNB-75 CNS
786-0 renal = system: 786-0 renal
OVCAR-8 ovarian = system: OVCAR-8 ovarian
K-562 leukemia = system: K-562 leukemia
ACHN renal = system: ACHN renal
SF-295 CNS = system: SF-295 CNS
SN12C renal = system: SN12C renal
CCRF-CEM leukemia = system: CCRF-CEM leukemia
MDA-MB-435 = system: MDA-MB-435
SK-MEL-28 melanoma = system: SK-MEL-28 melanoma
KM12 colon = system: KM12 colon
UACC-62 melanoma = system: UACC-62 melanoma
COLO 205 colon = system: COLO 205 colon
T-47D breast = system: T-47D breast
HT29 colon = system: HT29 colon
M14 melanoma = system: M14 melanoma
RPMI-8226 leukemia = system: RPMI-8226 leukemia
SR leukemia = system: SR leukemia
HL-60(TB) leukemia = system: HL-60(TB) leukemia
A498 renal = system: A498 renal

Compound: COC(=O)c1ccc(C)cc1CC1Cc2cccc(C)c2C1=O (stereo unspecified)
- TGI (IGROV1 ovarian): > 100 µM
- TGI (SK-OV-3 ovarian): 92 µM
- TGI (HCC-2998 colon): 29.3 µM
- TGI (A549 NSCLC): > 100 µM
- TGI (HOP-62 NSCLC): > 100 µM
- TGI (TK-10 renal): 48.6 µM
- TGI (OVCAR-4 ovarian): 95.8 µM
- TGI (OVCAR-5 ovarian): > 100 µM
- TGI (UACC-257 melanoma): 47.9 µM
- TGI (HS 578T breast): 39.9 µM
- TGI (MDA-MB-231 breast): 51.9 µM
- TGI (RXF 393 renal): 30.2 µM
- TGI (NCI-H522 lung): 6.57 µM
- TGI (SW-620 colon): > 100 µM
- TGI (MCF7 breast): 7.38 µM
- TGI (HCT-15 colon): 12.5 µM
- TGI (MALME-3M melanoma): 31.3 µM
- TGI (SNB-19 CNS): > 100 µM
- TGI (SK-MEL-2 melanoma): 17.1 µM
- TGI (EKVX NSCLC): 13.9 µM
- TGI (U251 CNS): 17.4 µM
- TGI (UO-31 renal): 56.7 µM
- TGI (CAKI-1 renal): > 100 µM
- TGI (LOX IMVI melanoma): 9.79 µM
- TGI (NCI-H226 lung): 9.66 µM
- TGI (MOLT-4 leukemia): 18.4 µM
- TGI (HOP-92 NSCLC): 58.7 µM
- TGI (MDA-N): 3.86 µM
- TGI (SF-268 CNS): > 100 µM
- TGI (SF-539 CNS): 17.6 µM
- TGI (PC-3 prostate): 64.8 µM
- TGI (HCT-116 colon): 20.8 µM
- TGI (BT-549 breast): 87.6 µM
- TGI (NCI-H23 lung): > 100 µM
- TGI (SK-MEL-5 melanoma): 11.4 µM
- TGI (NCI/ADR-RES ovarian): 66.3 µM
- TGI (DU-145 prostate): > 100 µM
- TGI (NCI-H460 lung): 22.7 µM
- TGI (OVCAR-3 ovarian): 30.7 µM
- TGI (SNB-75 CNS): 36.9 µM
- TGI (786-0 renal): > 100 µM
- TGI (OVCAR-8 ovarian): 33.5 µM
- TGI (K-562 leukemia): 9.79 µM
- TGI (ACHN renal): 97.6 µM
- TGI (SF-295 CNS): 72.2 µM
- TGI (SN12C renal): 78.2 µM
- TGI (CCRF-CEM leukemia): 51.3 µM
- TGI (MDA-MB-435): 3.34 µM
- TGI (SK-MEL-28 melanoma): 55.7 µM
- TGI (KM12 colon): 23 µM
- TGI (UACC-62 melanoma): 49.6 µM
- TGI (COLO 205 colon): 30.7 µM
- TGI (T-47D breast): 57.9 µM
- TGI (HT29 colon): 6.06 µM
- TGI (M14 melanoma): 23.2 µM

Compound: CCC/C(Cl)=N/OC(NC(=O)OCC)(C(F)(F)F)C(F)(F)F
- TGI (IGROV1 ovarian): 30.9 µM
- TGI (RPMI-8226 leukemia): 56.1 µM
- TGI (A549 NSCLC): > 100 µM
- TGI (HOP-62 NSCLC): > 100 µM
- TGI (TK-10 renal): 33.3 µM
- TGI (OVCAR-4 ovarian): 31.7 µM
- TGI (OVCAR-5 ovarian): 33.2 µM
- TGI (UACC-257 melanoma): 37.7 µM
- TGI (HS 578T breast): 77.3 µM
- TGI (MDA-MB-231 breast): 31.6 µM
- TGI (RXF 393 renal): 33.6 µM
- TGI (NCI-H522 lung): > 100 µM
- TGI (SW-620 colon): 37.5 µM
- TGI (MCF7 breast): 43.5 µM
- TGI (HCT-15 colon): 40.6 µM
- TGI (MALME-3M melanoma): 29.6 µM
- TGI (SNB-19 CNS): > 100 µM
- TGI (SK-MEL-2 melanoma): > 100 µM
- TGI (EKVX NSCLC): 45 µM
- TGI (U251 CNS): > 100 µM
- TGI (UO-31 renal): 33.8 µM
- TGI (SR leukemia): 57.6 µM
- TGI (CAKI-1 renal): 35.6 µM
- TGI (LOX IMVI melanoma): 35.4 µM
- TGI (NCI-H226 lung): > 100 µM
- TGI (MOLT-4 leukemia): 71.4 µM
- TGI (HL-60(TB) leukemia): 48.2 µM
- TGI (HOP-92 NSCLC): 36.2 µM
- TGI (MDA-N): 35.9 µM
- TGI (SF-268 CNS): 36.6 µM
- TGI (A498 renal): > 100 µM
- TGI (SF-539 CNS): 30.3 µM
- TGI (PC-3 prostate): > 100 µM
- TGI (HCT-116 colon): 34.6 µM
- TGI (NCI-H23 lung): 61.4 µM
- TGI (SK-MEL-5 melanoma): 71.4 µM
- TGI (NCI/ADR-RES ovarian): > 100 µM
- TGI (DU-145 prostate): > 100 µM
- TGI (NCI-H460 lung): > 100 µM
- TGI (OVCAR-3 ovarian): 29.6 µM
- TGI (SNB-75 CNS): > 100 µM
- TGI (786-0 renal): 31.2 µM
- TGI (OVCAR-8 ovarian): > 100 µM
- TGI (K-562 leukemia): 62.6 µM
- TGI (ACHN renal): 32.3 µM
- TGI (SF-295 CNS): > 100 µM
- TGI (SN12C renal): 32.6 µM
- TGI (CCRF-CEM leukemia): 87.9 µM
- TGI (MDA-MB-435): 34.8 µM
- TGI (SK-MEL-28 melanoma): 59.2 µM
- TGI (KM12 colon): > 100 µM
- TGI (UACC-62 melanoma): > 100 µM
- TGI (COLO 205 colon): 36.9 µM
- TGI (T-47D breast): 66.9 µM
- TGI (HT29 colon): 47.2 µM
- TGI (M14 melanoma): 32.1 µM
